ChEMBL document CHEMBL4359866, “A computer-assisted discovery of novel potential anti-obesity compounds as selective carbonic anhydrase VA inhibitors” (Eur J Med Chem, 2019)

Assays:
[1] = molecular target: Carbonic anhydrase 1 (Homo sapiens, UniProt P00915); assay: Inhibition of recombinant human carbonic anhydrase 1 preincubated with enzyme for 15 mins by phenol red dye based stopped flow CO2 hydration assay
[2] = molecular target: Carbonic anhydrase 2 (Homo sapiens, UniProt P00918); assay: Inhibition of recombinant human carbonic anhydrase 2 preincubated with enzyme for 15 mins by phenol red dye based stopped flow CO2 hydration assay
[3] = molecular target: Carbonic anhydrase 5A, mitochondrial (Homo sapiens, UniProt P35218); assay: Inhibition of recombinant human carbonic anhydrase VA preincubated with enzyme for 15 mins by phenol red dye based stopped flow CO2 hydration assay
Carbonic anhydrase 5A, mitochondrial, sequence (P35218 whole entry): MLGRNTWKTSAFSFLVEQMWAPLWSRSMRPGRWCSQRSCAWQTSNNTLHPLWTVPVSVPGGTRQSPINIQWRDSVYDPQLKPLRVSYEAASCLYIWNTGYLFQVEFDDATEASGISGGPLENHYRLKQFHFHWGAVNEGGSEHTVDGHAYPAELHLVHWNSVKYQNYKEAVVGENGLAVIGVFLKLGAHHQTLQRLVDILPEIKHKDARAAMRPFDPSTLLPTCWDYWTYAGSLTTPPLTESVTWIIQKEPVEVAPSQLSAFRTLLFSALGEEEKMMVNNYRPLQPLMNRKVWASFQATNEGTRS

Carbonic anhydrase 1, sequence (P00915 whole entry): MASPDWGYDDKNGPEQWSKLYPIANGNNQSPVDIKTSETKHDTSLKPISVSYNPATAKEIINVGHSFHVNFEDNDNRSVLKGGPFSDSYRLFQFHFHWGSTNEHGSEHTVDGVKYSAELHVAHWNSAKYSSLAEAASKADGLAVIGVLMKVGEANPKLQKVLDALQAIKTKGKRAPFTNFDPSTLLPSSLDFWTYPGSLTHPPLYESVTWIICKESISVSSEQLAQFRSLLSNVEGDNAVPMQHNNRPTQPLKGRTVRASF

SMILES | Ki [1] [µM] | Ki [2] [µM] | Ki [3] [µM]
O=C(CSc1ccncc1)N[C@@H]1C(=O)N2C(C(=O)O)=C(CO)CS[C@H]12 | > 10 | > 10 | 
COc1cc(CC(=O)O)ccc1OS(=O)(=O)O | > 10 | > 10 | 
Nc1ccc2c(n1)[nH]c1ccccc12 | > 10 | > 10 | 
CC(=O)c1cc(O)cc(O)c1 | > 10 | > 10 | 
Nc1nc(F)nc2c1ncn2[C@@H]1O[C@H](COP(=O)(O)O)[C@@H](O)[C@@H]1O [FLUDARABINE PHOSPHATE] | > 10 | > 10 | 0.131
NC(=O)c1cn(Cc2c(F)cccc2F)nn1 [RUFINAMIDE] | > 10 | > 10 | 0.344

Next, values leading:

Ki [1] [µM] | Ki [2] [µM] | Ki [3] [µM] | SMILES
> 10 | > 10 | 8.71 | O=C(Cc1nnc(O)nc1O)N/N=C/c1c(O)ccc2ccccc12
> 10 | > 10 | > 10 | O=C(COc1ccc2c3c(c(=O)oc2c1)CCC3)c1ccc(Cl)cc1
> 10 | > 10 |  | O=C(CCNc1n[nH]c(=O)[nH]c1=O)N/N=C\c1c(F)cccc1Cl
> 10 | > 10 | 9.75 | Nc1nc(=O)c2nc(CNc3ccc(C(=O)N[C@H](CCC(=O)O)C(=O)O)cc3)cnc2[nH]1
> 10 | > 10 |  | O=c1[nH]nc(SCc2ccc(Cl)cc2Cl)c(=O)[nH]1
> 10 | > 10 | 0.133 | COc1cc2nccc(Oc3ccc(NC(=O)NC4CC4)c(Cl)c3)c2cc1C(N)=O [LENVATINIB]
